Reference: ChEMBL document CHEMBL1201862, “PubChem BioAssay data set” (2004)
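Values below derive from 48-hour exposures of cells grown in 96-well plates, with endpoints linearly interpolated between the two concentrations bracketing the appropriate inhibition level. The concentration for 50% growth inhibition is given as GI50.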 Calls of active or inactive are those of the source. Cut-off read from the data, not from the text of the source: active = GI50 up to about 1.1 µM and inactive = higher.

Legend:
Assay in all cases: inhibition of tumour cell growth, NCI panel, 48 h
DLD-1 = test system: DLD-1
DMS-273 = test system: DMS-273
HOP-18 = test system: HOP-18
KM-20L2 = test system: KM-20L2
LXFL 529 = test system: LXFL 529
M19-MEL = test system: M19-MEL
RXF 631 = test system: RXF 631
SNB-78 = test system: SNB-78
XF498 = test system: XF498

Measured: GI50

N#CN1CC[C@@H]2CC3(CCC2C1)OCCO3 (some centres undefined)
inactive: DLD-1 > 100 µM | DMS-273 > 100 µM | HOP-18 > 100 µM | KM-20L2 > 100 µM | LXFL 529 > 100 µM | M19-MEL > 100 µM | RXF 631 > 100 µM | SNB-78 > 100 µM | XF498 > 100 µM
